{
  "source": "patent US20210330756A1",
  "about": "“Acetylation of Miro1” (University of South Carolina, priority 2020, published 2021)",
  "key": {"[1]": {"system": "growth cones of adult DRG neurons", "test": "Growth cone area/size of DRG sensory axons (DIC imaging)", "type": "cell-based, rat", "procedure": "HDAC6 inhibition increases growth cone size of sensory axons. Given our previous work showing that HDAC6 inhibition allows axons to grow on MAG and CSPG substrates (Rivieccio et al., 2009; Butler et al., 2010), we asked how inhibition of HDAC6 alters axon growth in cultures of adult dorsal root ganglion (DRG) neurons. […] (A) Quantification of neurite length for dissociated DRGs cultured on laminin with addition of HDAC6 inhibitor TubA (10 μm) versus vehicle control (DMSO) over 1 h is shown as average fold-change relative to vehicle±SEM (n≥95 neurons across three independent experiments; NS by one-way ANOVA with Bonferroni post hoc). (B and C) show representative DIC images of distal axons from DRG neurons cultured as in A are shown (B). 1-h TubA treatment appears to increase growth cone size. Analyses of growth cone area across multiple experiments show a significant increase in area after TubA treatment (C). Values are average fold-change±SEM (n≥26 neurons over at least three culture preparations; ***, P≤0.005 by one-way ANOVA with Bonferroni post hoc; scale bar=5 μm; 40×/1.3 NA objective used). […] Prominent HDAC6 signals are seen in distal axons and growth cones (arrows) regardless of TubA exposure. […]\nNF-stained cultures were used for neurite growth analyses. […] The growth cone area was measured using ImageJ software from these annotated DIC images. […]"}, "Ac-histone H4": {"system": "Ac-histone H4", "test": "Immunoblotting for Ac-histone H4 in adult DRG neurons (HDAC specificity)", "type": "cell-based, rat", "procedure": "We tested for this specificity in the adult DRG neurons from above by immunoblotting. […] (A) Number of mitochondria in growth cones after exposing DRG cultures to 10 μM TubA versus vehicle (control) for 1 h is shown as average fold-change in number of mitochondria per growth cone±SEM (n=13 axons across three culture preparations; *, P≤0.05 by one-way ANOVA with Bonferroni post hoc analysis). (B) Representative EMs of Remak bundles (arrowheads) in naive Sciatic nerve and nerves after 2 h vehicle (DMSO) or TubA injection are shown. Arrows indicate mitochondria in the unmyelinated axons. Note that a Schwann cell nucleus (asterisk) is seen in the Remak bundle for DMSO image but not the other two micrographs (scale bar=3 μm). (C) Quantification of number of mitochondria per unmyelinated axon from EM images as in B is shown as average±SEM (n≥5; *****, P≤0.0001 by one-way ANOVA with Bonferroni post hoc analysis). (D-F) Quantification for indicated parameters for mitochondrial transport in sciatic nerve in vivo using tetramethylrhodamine, ethyl ester, perchlorate to visualize mitochondria is shown.\nFor immunoblotting, protein lysates or immunoprecipitates were denatured by boiling in Laemmli sample buffer, fractionated by SDS-PAGE, and transferred to nitrocellulose membranes. Blots were blocked for 1 h at room temperature with 5% nonfat dry milk in TBS with 0.1% Tween 20 (TBST). Primary antibodies diluted in 5% BSA in TBST were added to the membranes and incubated overnight at 4° C. with rocking. Primary antibodies consisted of rabbit anti-Myc (1:2,000; Cell Signaling; 71D10), rabbit anti-RHOT1 antibody (1:1,000; Aviva Systems Biology; ARP44817 P050), rabbit anti-HDAC6 antibody (1:2,000; Cell Signaling; 7558), rabbit anti-ERK1 (1:5,000; Abcam; ab32537), and affinity-purified custom rabbit anti-Miro1-AcK105 (1:2,500; Twiss laboratory, see above) antibodies. For the anti-Miro1-AcK105 antibody, preimmune and test-bleed sera were used at 1:1,000 dilutions to initially evaluate for specificity. After washing in TBST, blots were incubated with HRP-conjugated anti-rabbit IgG antibodies (1:5,000; Jackson Immunoresearch) diluted in blocking buffer for 1 h at room temperature. Signals were detected using ECL Prime (GE Healthcare) after extensive washing."}},
  "data": [
    {"compound": "CN1CCc2c(c3ccccc3n2Cc2ccc(C(=O)NO)cc2)C1", "note": "[TubA, tubastatin]", "values": [
      {"measurement": "time after exposure at which growth cone enlargement was apparent", "setting": "[1]; 10 μM TubA, time-lapse DIC", "result": "≤ 10", "unit": "min"},
      {"measurement": "growth cone size vs vehicle controls", "setting": "[1]; 10 μM, 1 h, laminin", "result": "significantly larger growth cones"},
      {"measurement": "Ac-histone H4 levels", "setting": "Ac-histone H4; 1 μM", "result": "no change in Ac-histone H4 levels"},
      {"measurement": "Ac-histone H4 levels", "setting": "Ac-histone H4; 10 μM", "result": "no change in Ac-histone H4 levels"},
      {"measurement": "Ac-histone H4 levels", "setting": "Ac-histone H4; 100 μM", "result": "only modest increase in Ac-histone H4"}
    ]}
  ]
}
